ChEMBL document CHEMBL1140446, “Designed multiple ligands. An emerging drug discovery paradigm” (J Med Chem, 2005)

What was measured:
[1] = target: Histamine H1 receptor (Homo sapiens, UniProt P35367)
Description: Inhibition constant against histamine H1 receptor

[2] = target: T1, Thromboxane A2 receptor (Homo sapiens, UniProt P21731)
T1 sequence (P21731 whole entry): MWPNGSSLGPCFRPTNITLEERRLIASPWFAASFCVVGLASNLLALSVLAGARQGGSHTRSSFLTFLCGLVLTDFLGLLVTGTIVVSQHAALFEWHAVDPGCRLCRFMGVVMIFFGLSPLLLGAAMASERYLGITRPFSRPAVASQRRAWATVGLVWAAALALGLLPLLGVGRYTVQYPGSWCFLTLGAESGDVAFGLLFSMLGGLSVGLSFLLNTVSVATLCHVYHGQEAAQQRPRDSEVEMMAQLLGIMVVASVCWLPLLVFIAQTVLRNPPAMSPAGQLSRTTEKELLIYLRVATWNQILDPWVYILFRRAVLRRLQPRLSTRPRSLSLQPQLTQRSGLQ
Description: Inhibition constant against thromboxane A2 receptor to prostaglandin H2 receptor

[3] = target: T2, Type-1 angiotensin II receptor (Homo sapiens, UniProt P30556)
T2 sequence (P30556 whole entry): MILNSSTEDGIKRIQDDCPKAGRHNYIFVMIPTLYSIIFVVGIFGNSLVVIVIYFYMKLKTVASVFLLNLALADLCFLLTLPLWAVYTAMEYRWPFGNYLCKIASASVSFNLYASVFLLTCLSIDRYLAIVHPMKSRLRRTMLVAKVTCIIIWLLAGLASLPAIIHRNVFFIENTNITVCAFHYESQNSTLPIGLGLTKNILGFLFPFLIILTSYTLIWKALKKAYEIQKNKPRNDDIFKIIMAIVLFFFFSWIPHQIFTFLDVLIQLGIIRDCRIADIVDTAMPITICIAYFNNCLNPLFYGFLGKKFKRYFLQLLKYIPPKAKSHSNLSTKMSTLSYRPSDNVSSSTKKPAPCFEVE
Description: (§1) Inhibitory concentration against angiotensin II receptor, type 1

[4] = target: T3, Type-2 angiotensin II receptor (Homo sapiens, UniProt P50052)
T3 sequence (P50052 whole entry): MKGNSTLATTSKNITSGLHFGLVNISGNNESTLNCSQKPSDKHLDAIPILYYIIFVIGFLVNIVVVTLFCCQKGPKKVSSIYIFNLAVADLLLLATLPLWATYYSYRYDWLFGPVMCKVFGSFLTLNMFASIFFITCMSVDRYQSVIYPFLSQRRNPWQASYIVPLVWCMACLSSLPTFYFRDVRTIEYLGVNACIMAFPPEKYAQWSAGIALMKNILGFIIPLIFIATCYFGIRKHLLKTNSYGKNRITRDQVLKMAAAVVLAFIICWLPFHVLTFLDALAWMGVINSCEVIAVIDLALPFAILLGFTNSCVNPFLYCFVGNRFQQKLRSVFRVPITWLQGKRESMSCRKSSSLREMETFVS
Description: Inhibitory concentration against angiotensin II receptor, type 2

[5] = target: T4, Polyunsaturated fatty acid 5-lipoxygenase (Homo sapiens, UniProt P09917)
T4 sequence (P09917 whole entry): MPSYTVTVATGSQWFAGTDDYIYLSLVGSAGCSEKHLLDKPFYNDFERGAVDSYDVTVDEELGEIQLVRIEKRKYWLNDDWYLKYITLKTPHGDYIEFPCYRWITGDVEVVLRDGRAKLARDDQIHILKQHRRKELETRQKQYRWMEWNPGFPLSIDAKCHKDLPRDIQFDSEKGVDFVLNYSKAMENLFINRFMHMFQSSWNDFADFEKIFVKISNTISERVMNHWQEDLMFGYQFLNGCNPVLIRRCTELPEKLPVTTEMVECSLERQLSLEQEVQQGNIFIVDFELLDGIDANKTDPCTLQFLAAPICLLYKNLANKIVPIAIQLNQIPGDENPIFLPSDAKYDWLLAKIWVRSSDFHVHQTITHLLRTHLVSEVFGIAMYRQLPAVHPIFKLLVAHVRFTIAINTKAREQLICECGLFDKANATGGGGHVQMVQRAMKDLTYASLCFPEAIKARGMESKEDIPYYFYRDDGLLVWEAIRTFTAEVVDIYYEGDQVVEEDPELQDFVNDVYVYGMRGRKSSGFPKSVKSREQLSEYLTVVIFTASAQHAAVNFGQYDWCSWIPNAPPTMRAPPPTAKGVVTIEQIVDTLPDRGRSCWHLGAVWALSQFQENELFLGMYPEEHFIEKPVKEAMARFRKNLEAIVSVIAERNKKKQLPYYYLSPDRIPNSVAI
Description: Inhibitory concentration against arachidonate 5-lipoxygenase

[6] = target: Prostaglandin G/H synthase 1 (Homo sapiens, UniProt P23219)
Sequence of Prostaglandin G/H synthase 1 (P23219 whole entry): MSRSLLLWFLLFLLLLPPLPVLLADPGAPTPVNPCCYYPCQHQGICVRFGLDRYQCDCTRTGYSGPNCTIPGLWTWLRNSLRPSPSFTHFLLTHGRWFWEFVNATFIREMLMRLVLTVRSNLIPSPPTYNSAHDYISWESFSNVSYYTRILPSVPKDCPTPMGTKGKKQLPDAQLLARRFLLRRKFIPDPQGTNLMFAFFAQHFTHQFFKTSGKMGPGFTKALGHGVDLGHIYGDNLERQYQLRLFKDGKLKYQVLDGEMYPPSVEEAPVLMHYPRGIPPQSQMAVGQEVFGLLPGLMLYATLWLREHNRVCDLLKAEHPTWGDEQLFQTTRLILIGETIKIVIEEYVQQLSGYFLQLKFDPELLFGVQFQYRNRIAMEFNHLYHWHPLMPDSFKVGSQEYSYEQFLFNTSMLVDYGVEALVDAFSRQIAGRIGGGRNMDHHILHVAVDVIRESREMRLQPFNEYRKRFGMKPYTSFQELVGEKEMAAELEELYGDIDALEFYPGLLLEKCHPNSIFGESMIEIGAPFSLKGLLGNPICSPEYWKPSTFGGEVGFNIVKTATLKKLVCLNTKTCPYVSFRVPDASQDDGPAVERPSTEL
Description: Inhibitory concentration against prostaglandin G/H synthase 1

[7] = target: T5, Peroxisome proliferator-activated receptor gamma (Homo sapiens, UniProt P37231)
T5 sequence (P37231 whole entry): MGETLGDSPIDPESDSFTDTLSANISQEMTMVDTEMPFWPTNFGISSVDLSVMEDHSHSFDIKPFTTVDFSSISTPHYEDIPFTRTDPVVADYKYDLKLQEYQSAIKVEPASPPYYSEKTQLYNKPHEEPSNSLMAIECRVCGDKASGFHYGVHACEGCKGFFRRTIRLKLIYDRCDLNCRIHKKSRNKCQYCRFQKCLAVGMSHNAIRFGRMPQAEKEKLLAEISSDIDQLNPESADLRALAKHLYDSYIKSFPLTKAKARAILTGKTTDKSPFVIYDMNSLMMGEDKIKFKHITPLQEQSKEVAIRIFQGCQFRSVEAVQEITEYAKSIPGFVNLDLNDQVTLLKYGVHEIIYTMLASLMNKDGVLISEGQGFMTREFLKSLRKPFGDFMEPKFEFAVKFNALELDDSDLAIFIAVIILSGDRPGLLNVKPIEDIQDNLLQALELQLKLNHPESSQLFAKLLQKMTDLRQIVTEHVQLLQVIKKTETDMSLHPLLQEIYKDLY
Description: Binding affinity towards peroxisome proliferator activated receptor gamma

[8] = target: T6, Peroxisome proliferator-activated receptor alpha (Homo sapiens, UniProt Q07869)
T6 sequence (Q07869 whole entry): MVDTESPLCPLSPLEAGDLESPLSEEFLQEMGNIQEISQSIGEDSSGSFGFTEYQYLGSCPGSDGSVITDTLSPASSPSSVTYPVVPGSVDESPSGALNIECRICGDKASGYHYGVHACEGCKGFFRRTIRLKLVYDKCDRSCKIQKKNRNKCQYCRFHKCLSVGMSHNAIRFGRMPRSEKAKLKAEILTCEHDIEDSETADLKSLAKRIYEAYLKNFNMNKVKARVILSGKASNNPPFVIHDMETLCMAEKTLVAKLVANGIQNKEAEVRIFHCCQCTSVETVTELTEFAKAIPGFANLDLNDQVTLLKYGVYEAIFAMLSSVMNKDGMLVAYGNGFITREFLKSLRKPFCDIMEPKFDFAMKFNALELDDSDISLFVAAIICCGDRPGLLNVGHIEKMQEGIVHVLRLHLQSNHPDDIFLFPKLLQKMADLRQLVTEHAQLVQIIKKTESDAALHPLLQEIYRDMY
Description: Binding affinity towards peroxisome proliferator activated receptor alpha

[9] = target: Thromboxane-A synthase (Homo sapiens, UniProt P24557)
Sequence of Thromboxane-A synthase (P24557 whole entry): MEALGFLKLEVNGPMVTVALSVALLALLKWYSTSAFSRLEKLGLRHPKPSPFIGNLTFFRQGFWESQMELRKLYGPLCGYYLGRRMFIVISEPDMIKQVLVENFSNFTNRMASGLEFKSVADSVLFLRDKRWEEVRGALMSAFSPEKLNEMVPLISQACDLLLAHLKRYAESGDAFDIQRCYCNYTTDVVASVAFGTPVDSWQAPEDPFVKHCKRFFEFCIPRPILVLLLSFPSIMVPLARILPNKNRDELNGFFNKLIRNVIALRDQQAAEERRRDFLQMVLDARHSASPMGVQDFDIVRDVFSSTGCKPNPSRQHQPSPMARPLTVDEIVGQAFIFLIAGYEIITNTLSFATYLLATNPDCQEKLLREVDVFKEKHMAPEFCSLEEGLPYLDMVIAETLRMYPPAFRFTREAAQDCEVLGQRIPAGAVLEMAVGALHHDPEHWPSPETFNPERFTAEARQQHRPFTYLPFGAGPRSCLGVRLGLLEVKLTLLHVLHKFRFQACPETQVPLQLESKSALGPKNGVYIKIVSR
Description: Inhibitory concentration against thromboxane A2 synthase

[10] = target: T7, Substance-K receptor (Homo sapiens, UniProt P21452)
T7 sequence (P21452 whole entry): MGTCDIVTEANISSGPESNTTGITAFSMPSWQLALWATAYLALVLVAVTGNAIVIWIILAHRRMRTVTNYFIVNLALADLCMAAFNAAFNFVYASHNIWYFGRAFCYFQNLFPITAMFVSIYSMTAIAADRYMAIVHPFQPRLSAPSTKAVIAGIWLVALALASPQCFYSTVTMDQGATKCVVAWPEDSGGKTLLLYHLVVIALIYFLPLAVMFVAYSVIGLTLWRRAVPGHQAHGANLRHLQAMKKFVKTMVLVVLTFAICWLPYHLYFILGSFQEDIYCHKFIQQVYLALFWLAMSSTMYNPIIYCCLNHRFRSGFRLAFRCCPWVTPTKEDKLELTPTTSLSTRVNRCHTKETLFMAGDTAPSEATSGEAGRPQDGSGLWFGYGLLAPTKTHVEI
Description: Inhibitory concentration against tachykinin receptor 2

[11] = target: Substance-P receptor (Homo sapiens, UniProt P25103); assay: Inhibitory concentration against tachykinin receptor 1
Sequence of Substance-P receptor (P25103 whole entry): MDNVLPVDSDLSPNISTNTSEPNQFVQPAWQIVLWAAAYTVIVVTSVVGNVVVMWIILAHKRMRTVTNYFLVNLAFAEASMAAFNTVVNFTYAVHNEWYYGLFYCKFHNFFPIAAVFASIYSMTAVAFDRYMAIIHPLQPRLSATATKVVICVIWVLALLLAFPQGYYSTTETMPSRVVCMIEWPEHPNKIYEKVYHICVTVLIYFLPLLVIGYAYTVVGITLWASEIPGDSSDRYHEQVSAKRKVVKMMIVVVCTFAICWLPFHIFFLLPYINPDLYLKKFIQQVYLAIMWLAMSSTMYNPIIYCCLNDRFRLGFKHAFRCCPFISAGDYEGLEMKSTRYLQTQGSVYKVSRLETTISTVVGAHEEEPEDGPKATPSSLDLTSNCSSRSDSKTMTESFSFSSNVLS

[12] = target: T2, Type-1 angiotensin II receptor; remark: listed apart in the source
Description: as §1

[13] = target: T8, Endothelin-1 receptor (Homo sapiens, UniProt P25101)
T8 sequence (P25101 whole entry): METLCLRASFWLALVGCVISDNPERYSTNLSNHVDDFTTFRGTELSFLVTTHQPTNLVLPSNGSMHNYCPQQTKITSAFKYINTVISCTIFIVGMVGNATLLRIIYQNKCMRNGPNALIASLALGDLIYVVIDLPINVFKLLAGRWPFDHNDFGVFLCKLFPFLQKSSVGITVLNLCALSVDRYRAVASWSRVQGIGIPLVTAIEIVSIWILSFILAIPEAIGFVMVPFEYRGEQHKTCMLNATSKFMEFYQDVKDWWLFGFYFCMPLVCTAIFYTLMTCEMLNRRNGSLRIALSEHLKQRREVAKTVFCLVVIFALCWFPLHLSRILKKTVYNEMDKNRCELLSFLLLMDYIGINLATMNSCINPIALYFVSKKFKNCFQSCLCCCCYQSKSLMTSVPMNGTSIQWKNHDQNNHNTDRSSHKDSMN
Description: Inhibitory concentration against endothelin receptor type A

Sequence of Histamine H1 receptor (P35367 whole entry): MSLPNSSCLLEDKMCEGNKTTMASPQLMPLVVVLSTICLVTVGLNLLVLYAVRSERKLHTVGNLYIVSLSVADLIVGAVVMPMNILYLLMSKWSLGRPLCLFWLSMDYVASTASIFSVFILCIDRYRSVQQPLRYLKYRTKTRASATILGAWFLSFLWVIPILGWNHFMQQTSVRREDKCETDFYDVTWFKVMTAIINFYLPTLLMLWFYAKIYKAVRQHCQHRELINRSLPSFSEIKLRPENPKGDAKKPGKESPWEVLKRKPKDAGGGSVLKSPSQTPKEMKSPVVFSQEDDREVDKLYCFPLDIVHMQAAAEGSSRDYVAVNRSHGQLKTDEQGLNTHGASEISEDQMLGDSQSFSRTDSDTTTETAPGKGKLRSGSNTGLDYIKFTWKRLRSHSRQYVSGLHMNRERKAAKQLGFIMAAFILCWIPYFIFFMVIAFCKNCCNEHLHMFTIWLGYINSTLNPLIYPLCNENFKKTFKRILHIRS

## CN(C)C/C=C1\c2ccccc2COc2ccc(CC(=O)O)cc21
[1]
  Ki: 11 nM
[2]
  Ki: > 1000 nM

## CCCCc1nc2ccc(NC(=O)N(C)C(C)C)cc2c(=O)n1Cc1ccc(-c2ccccc2-c2nnn[nH]2)cc1
[3]
  IC50: 0.1 nM
[4]
  IC50: 4500 nM

## CC1(C)Cc2c(-c3ccccc3)c(-c3ccc(Cl)cc3)c(CC(=O)O)n2C1 [LICOFELONE]
[5]
  IC50: 210 nM
[6]
  IC50: 160 nM

## O=C(O)c1ccc2c(c1)/C(=C/Cn1cnc3ccccc31)c1ccccc1CO2
[2]
  Ki: 15 nM

## O=C(O)Cc1ccc2c(c1)C(=CCN1CCC(Cc3ccccc3)CC1)c1ccccc1CO2
[1]
  Ki: 20 nM
[2]
  Ki: 740 nM

## CC(Cc1ccccc1)(Oc1ccc(Cl)cc1)C(=O)O (configuration not stated)
[7]
  IC50: 3.9 µM
[8]
  IC50: 4.4 µM

## CNc1nc2c(Cc3cccnc3)c(C)c(O)c(C)c2s1
[5]
  IC50: 100 nM
[9]
  IC50: 90 nM

## CCCCCN(C(=O)c1ccccc1)c1ccc2nc(CCC)n(Cc3ccc(-c4ccccc4-c4nn[nH]n4)cc3)c(=O)c2c1
[3]
  IC50: 1.7 nM
[4]
  IC50: 0.7 nM

## COc1cc(C(=O)N2CC[C@@](CCN3CCC(C(N)=O)(c4ccccc4)CC3)(c3ccc(Cl)c(Cl)c3)C2)cc(OC)c1OC
[10]
  IC50: 8.4 nM
[11]
  IC50: 3.1 nM

## Cc1c(Cc2ccncc2)n(CCNS(=O)(=O)c2ccc(F)cc2)c2ccc(CCC(=O)O)cc12
[9]
  IC50: 78 nM

## NC(=O)C1(c2ccccc2)CCN(CC[C@@]2(c3ccc(Cl)c(Cl)c3)CCN(C(=O)c3ccccc3)C2)CC1
[10]
  IC50: 2.25 nM
[11]
  IC50: 161 nM

## CCCCC1=NC2(CCCC2)C(=O)N1Cc1ccc(-c2ccccc2S(=O)(=O)Nc2noc(C)c2C)c(COCC)c1
[12]
  Ki: 0.8 nM
[13]
  Ki: 9.3 nM

## COC1(c2cc(F)cc(OCc3cc(-c4ccccc4)n(-c4ccc(S(C)(=O)=O)cc4)n3)c2)CCOCC1
[6]
  IC50: > 10 nM

## Cc1oc(-c2ccccc2)nc1CCOc1ccc(OC(C)(C)C(=O)O)cc1
[7]
  IC50: 2.57 µM
[8]
  IC50: 1.74 µM

## Cc1onc(NS(=O)(=O)c2ccccc2-c2ccc(-c3ncco3)cc2CN(C)C(=O)CC(C)(C)C)c1C [EDONENTAN]
[12]
  Ki: > 10 nM
[13]
  Ki: 10 nM
